Measurements as given in patent US4324788A, “Alkoxyalkylidenhydrazinopridazines and process for their preparation” (I.S.F. S.p.A., priority 1979, dated 1982).
Where a name gives a salt, the structure may show the parent alone. Read-outs that look alike come from different tables or passages of the source.

Experiments:
in vivo = conditions: mouse, ip
[1] = tested on: genetically hypertensive rats; test: Arterial pressure and heart rate per os in genetically hypertensive rats (SHR); format: in vivo, rat (genetically hypertensive; conditions: for HR DE25 (ED25, dose giving an increase of the heart rate of 25%): > = no increase of the heart rate at the maximal tested dose; for ED25: po, read-out: BP DE25 (ED25, dose giving a drop of the blood pressure of 25%)
Text: activity on the arterial pressure and on the heart rate has been studied per os in genetically hypertensive rats according to the method described in Pharm. Research Comm.

[2] = tested on: guinea-pig isolated atria; conditions: isoprenaline agonist, product at 10^-4 M
strips of rabbit aorta = test: Spasmolytic activity in vitro on strips of rabbit aorta with potassium chloride induced spasm; format: cell-based; conditions: Oryctolagus cuniculus, spasm with 30 mM potassium chloride, read-out: EC50 (relaxing 50% the strip of rabbit aorta)
Procedure: spasmolytic activity is determined evaluating the direct relaxant effect on the vasal smooth muscle in vitro on strips of rabbit aorta in which spasm was induced by potassium chloride according to the method described in Journ. of Pharm. and Exper. […] The products were added at sequentially cumulative molar doses and their activity indicated as Effective Concentration (EC50).

[3] = SHR rat, per os, at the moment of maximum effect

Row | SMILES | LD50 (in vivo) [mg/kg] | HR DE25 (ED25, dose giving an increase of the heart rate of 25%) ([1]; SHR rat, per os) [mg/kg/os] | ED25 [1, 3] [mg/kg] | DR4 (dose ratio of agonist EC50 in the presence and in the absence of the product) [2] | EC50 (strips of rabbit aorta) [µM] | ED25 ([1]; Rattus norvegicus) [mg/kg]
1 | CC(C)=NNc1ccc(OCC(O)CNC(C)(C)C)nn1 (stereo not drawn) [3-(3-t.Butylamino-2-hydroxypropoxy)-6-isopropylidenhydrazinopyridazine dihydrochloride] | 500 | > 100 | 50 | 78 | – | –
2 | NNc1nncc2ccccc12 [Hydralazine, reference compound] | – | 6.0 | 8.1 | 1 | 680 | –
3 | CC(C)NCC(O)COc1cccc2ccccc12 (stereo not drawn) [Propanolol, reference compound] | – | > 100 | – | – | – | > 400
4 | CCC(C)NCC(O)COc1ccc(NN=C(C)C)nn1.Cl.Cl (stereo not drawn) [3-[3-(2-butyl)amino-2-hydroxypropoxy]6-isopropylidenhydrazinopyridazine dihydrochloride] | 300 | > 50 | 25 | 72 | – | –
5 | CC(C)=NNc1ccc(OCC(O)CNC(C)CCc2ccccc2)nn1.Cl.Cl (stereo not drawn) [3-[3-(4-phenyl-2-butyl)amino-2-hydroxypropoxy]6-isopropylidenhydrazinopyridazine dihydrochloride] | 200 | > 40 | 17 | 80 | – | –
6 | CC(CCc1ccccc1)NCC(O)c1ccc(O)c(C(N)=O)c1 (stereo not drawn) [Labetalol, reference compound] | – | > 100 | 400 | – | > 10000 | –
7 | CC(C)=NNc1ccc(OCC(O)CNC(C)C)nn1.Cl.Cl (stereo not drawn) [3-(3-Isopropylamino-2-hydroxypropoxy)-6-isopropylidenhydrazinopyridazine dihydrochloride] | 500 | > 100 | 350 | 77 | 1700 | –
8 | COc1ccc(CCNCC(O)COc2ccc(NN=C(C)C)nn2)cc1OC.Cl.Cl (stereo not drawn) [3-{3[2(3,4-dimethoxyphenyl)ethyl]amino-2-hydroxypropoxy}6-isopropylidenhydrazinopyridazine dihydrochloride] | 300 | > 60 | 39 | 531 | – | –
